According to US6583265B1, “Cyclosporins” (C-Chem AG, priority 1998, dated 2003):
Values after ≈ are worked out from the molar mass of the structure shown. Read-outs that look alike come from different tables or passages of the source. Numbered stars: 1 amine (or outer) side, 2 acyl side, 3 side chain; on linkers, the order of the positions; unused ones are H or OH. Square brackets hold non-standard residues; d marks the D form. Peptide text beside a SMILES is read from it. MeBmt = C/C=C/C[C@@H](C)[C@@H](O)[C@H](NC)C(=O)O; NMeLeu(4-OH) = CN[C@@H](CC(C)(C)O)C(=O)O; X2 = CN(C(Sc1ccccn1)C(=O)[*:2])[*:1]; NMeL = CN[C@@H](CC(C)C)C(=O)O; NMeV = CN[C@H](C(=O)O)C(C)C; Abu = CC[C@H](N)C(=O)O

Legend:
cyclophilin = cyclophilin (Homo sapiens, UniProt P62937); assay: Test for cyclophilin binding (Fliri); conditions: ratio to cyclosporin A
Description: To measure the affinity and inhibition of test compounds for cyclophilin, the test described by H. Fliri in “Antibiotics and Antiviral compounds”, 1993, Verlag Chemie, K.Krohn, H. A. Kirst, and H. Maag, eds., p 229-240 was used.

HIV = format: cell-based
Description: The inhibitory effect of test compounds on the HIV-induced cytopathic effect on the MT4 T cell line as described by R. Pauwels in J. Virol. Methods, 1988, Vol. 20, pp 309-321 was used.

[1] = Antiinflammatory activity, adjuvent arthritis test (Pearson); format: in vivo; conditions: oral, solutions in olive oil and tween 80
Method: The antiinflammatory activity of test compounds was determined by the adjuvent arthritis test described by Pearson, “Arthr. Rheum”, 1959, Vol. 2., 440. Test compounds were administered orally as solutions in olive oil and tween 80.

[2] = tested on: T. gondii tachyzoites, strain RH; format: cell-based, Toxoplasma gondii; conditions: 72 h
Method: Using microliter plates, T. gondii tachyzoites, strain RH were co-incubated with fibroblasts (MCR5, Bio-Merieux) for 72 hrs in the presence and absence of test compounds T. gondii was quantified using an ELISA. The activities of the test compounds are as follows: […]

Chain of cyclophilin (P62937 whole entry): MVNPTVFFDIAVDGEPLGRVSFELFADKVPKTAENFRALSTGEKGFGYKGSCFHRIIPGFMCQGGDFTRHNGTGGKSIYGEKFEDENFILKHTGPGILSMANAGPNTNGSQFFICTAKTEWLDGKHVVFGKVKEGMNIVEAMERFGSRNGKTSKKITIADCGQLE

Compound | Relative IC50, i.e. IC50 (cyclosporin A)/IC50 (test compound) (cyclophilin) | IC50 (HIV) [µg/mL] | ED50, dose effective in reducing the joint swelling by 50% [1] [mg/kg] | IC50 (HIV; HIV-induced cytopathic effect on MT4 T cell line) [µg/mL] | Activity against T. gondii (IC50) [2] [µg/mL]
C/C=C/C[C@@H](C)[C@@H](O)[C@H]1C(=O)N[C@@H](CC)C(=O)N(C)C(Sc2ccccn2)C(=O)N(C)[C@@H](CC(C)C)C(=O)N[C@@H](C(C)C)C(=O)N(C)[C@@H](CC(C)C)C(=O)N[C@@H](C)C(=O)N[C@H](C)C(=O)N(C)[C@@H](CC(C)C)C(=O)N(C)[C@@H](CC(C)C)C(=O)N(C)[C@@H](C(C)C)C(=O)N1C (stereo partly drawn) [Example 1, 3-(Pyridyl-2-thio)-cyclosporin] (HELM PEPTIDE1{[C/C=C/C[C@@H](C)[C@@H](O)[C@@H](C(=O)[*:2])N(C)[*:1]].[Abu].[CN(C(Sc1ccccn1)C(=O)[*:2])[*:1]].[meL].V.[meL].A.[dA].[meL].[meL].[meV]}$PEPTIDE1,PEPTIDE1,1:R1-11:R2$$$V2.0) | 0.2 | 0.45 (≈ 0.343 µM) | 25 | – | –
C/C=C/C[C@@H](C)[C@@H](O)[C@H]1C(=O)N[C@@H](CC)C(=O)N(C)C(Sc2ccccn2)C(=O)N(C)[C@@H](CC(C)C)C(=O)N[C@@H](C(C)C)C(=O)N(C)[C@@H](CC(C)C)C(=O)N[C@@H](C)C(=O)N[C@H](CO)C(=O)N(C)[C@@H](CC(C)C)C(=O)N(C)[C@@H](CC(C)C)C(=O)N(C)[C@@H](C(C)C)C(=O)N1C (stereo partly drawn) [Example 7, 3-(Pyridyl-2-thio)-8-(D)-serine-cyclosporin] (HELM PEPTIDE1{[C/C=C/C[C@@H](C)[C@@H](O)[C@@H](C(=O)[*:2])N(C)[*:1]].[Abu].[CN(C(Sc1ccccn1)C(=O)[*:2])[*:1]].[meL].V.[meL].A.[dS].[meL].[meL].[meV]}$PEPTIDE1,PEPTIDE1,1:R1-11:R2$$$V2.0) | 0.2 | 1 (≈ 0.753 µM) | 25 | – | –
C/C=C/C[C@@H](C)[C@@H](O)[C@H]1C(=O)N[C@@H](CC)C(=O)N(C)C(Sc2ccccn2)C(=O)N(C)[C@@H](CC(C)(C)O)C(=O)N[C@@H](C(C)C)C(=O)N(C)[C@@H](CC(C)C)C(=O)N[C@@H](C)C(=O)N[C@H](C)C(=O)N(C)[C@@H](CC(C)C)C(=O)N(C)[C@@H](CC(C)C)C(=O)N(C)[C@@H](C(C)C)C(=O)N1C (stereo partly drawn) [Example 3, 3-(Pyridyl-2-thio)-4-(γ-hydroxy-methylleucine)-cyclosporin] (cyclo([MeBmt][Abu][X2][NMeLeu(4-OH)]V[NMeL]A[dA][NMeL][NMeL][NMeV])) | 0.2 | 1 (≈ 0.753 µM) | 25 | – | –
C/C=C/C[C@@H](C)[C@@H](O)[C@H]1C(=O)N[C@@H](CC)C(=O)N(C)C(SCCN(C)C)C(=O)N(C)[C@@H](CC(C)C)C(=O)N[C@@H](C(C)C)C(=O)N(C)[C@@H](CC(C)C)C(=O)N[C@@H](C)C(=O)N[C@H](C)C(=O)N(C)[C@@H](CC(C)C)C(=O)N(C)[C@@H](CC(C)C)C(=O)N(C)[C@@H](C(C)C)C(=O)N1C (stereo partly drawn) [Example 9, 3-(2-dimethylaminoethylthio)-cyclosporin] | – | – | – | 0.03 (≈ 0.023 µM) | 0.1
C/C=C/C[C@@H](C)[C@@H](O)[C@H]1C(=O)N[C@@H](C(C)C)C(=O)N(C)C(Sc2ccccn2)C(=O)N(C)[C@@H](CC(C)C)C(=O)N[C@@H](C(C)C)C(=O)N(C)[C@@H](CC(C)C)C(=O)N[C@@H](C)C(=O)N[C@H](C)C(=O)N(C)[C@@H](CC(C)C)C(=O)N(C)[C@@H](CC(C)C)C(=O)N(C)[C@@H](C(C)C)C(=O)N1C (stereo partly drawn) [Example 6, 3-(Pyridyl-2-thio)-2-valine-cyclosporin] (HELM PEPTIDE1{[C/C=C/C[C@@H](C)[C@@H](O)[C@@H](C(=O)[*:2])N(C)[*:1]].V.[CN(C(Sc1ccccn1)C(=O)[*:2])[*:1]].[meL].V.[meL].A.[dA].[meL].[meL].[meV]}$PEPTIDE1,PEPTIDE1,1:R1-11:R2$$$V2.0) | 0.2 | 1 (≈ 0.754 µM) | 25 | – | –
C/C=C/C[C@@H](C)[C@@H](O)[C@H]1C(=O)N[C@@H](CCC)C(=O)N(C)C(Sc2ccccn2)C(=O)N(C)[C@@H](CC(C)C)C(=O)N[C@@H](C(C)C)C(=O)N(C)[C@@H](CC(C)C)C(=O)N[C@@H](C)C(=O)N[C@H](C)C(=O)N(C)[C@@H](CC(C)C)C(=O)N(C)[C@@H](CC(C)C)C(=O)N(C)[C@@H](C(C)C)C(=O)N1C (stereo partly drawn) [Example 5, 3-(Pyridyl-2-thio)-2-norvaline-cyclosporin] (HELM PEPTIDE1{[C/C=C/C[C@@H](C)[C@@H](O)[C@@H](C(=O)[*:2])N(C)[*:1]].[Nva].[CN(C(Sc1ccccn1)C(=O)[*:2])[*:1]].[meL].V.[meL].A.[dA].[meL].[meL].[meV]}$PEPTIDE1,PEPTIDE1,1:R1-11:R2$$$V2.0) | 0.2 | 1 (≈ 0.754 µM) | 25 | – | –
C/C=C/C[C@@H](C)[C@@H](OC(C)=O)[C@H]1C(=O)N[C@@H](CC)C(=O)N(C)C(OC(C)=O)C(=O)N(C)[C@@H](CC(C)C)C(=O)N[C@@H](C(C)C)C(=O)N(C)[C@@H](CC(C)C)C(=O)N[C@@H](C)C(=O)N[C@H](C)C(=O)N(C)[C@@H](CC(C)C)C(=O)N(C)[C@@H](CC(C)C)C(=O)N(C)[C@@H](C(C)C)C(=O)N1C (stereo partly drawn) [Example 12, 3′,3-Diacetoxy-cyclosporin] | 1.5 | 0.15 (≈ 0.115 µM) | 15 | – | –
C/C=C/C[C@@H](C)[C@@H](O)[C@H]1C(=O)N[C@@H](CC)C(=O)N(C)C(Sc2ccccc2)C(=O)N(C)[C@@H](CC(C)C)C(=O)N[C@@H](C(C)C)C(=O)N(C)[C@@H](CC(C)C)C(=O)N[C@@H](C)C(=O)N[C@H](C)C(=O)N(C)[C@@H](CC(C)C)C(=O)N(C)[C@@H](CC(C)C)C(=O)N(C)[C@@H](C(C)C)C(=O)N1C (stereo partly drawn) [Example 8, 3-(Phenylthio)-cyclosporin A] (HELM PEPTIDE1{[C/C=C/C[C@@H](C)[C@@H](O)[C@@H](C(=O)[*:2])N(C)[*:1]].[Abu].[CN(C(Sc1ccccc1)C(=O)[*:2])[*:1]].[meL].V.[meL].A.[dA].[meL].[meL].[meV]}$PEPTIDE1,PEPTIDE1,1:R1-11:R2$$$V2.0) | 0.4 | 0.5 (≈ 0.381 µM) | 25 | – | –
C/C=C/C[C@@H](C)[C@@H](O)[C@H]1C(=O)N[C@@H](CC)C(=O)N(C)C(Sc2ccccn2)C(=O)N(C)[C@@H](C(C)C)C(=O)N[C@@H](C(C)C)C(=O)N(C)[C@@H](CC(C)C)C(=O)N[C@@H](C)C(=O)N[C@H](C)C(=O)N(C)[C@@H](CC(C)C)C(=O)N(C)[C@@H](CC(C)C)C(=O)N(C)[C@@H](C(C)C)C(=O)N1C (stereo partly drawn) [Example 4, 3-(Pyridyl-2-thio)-4-methylvaline-cyclosporin] (HELM PEPTIDE1{[C/C=C/C[C@@H](C)[C@@H](O)[C@@H](C(=O)[*:2])N(C)[*:1]].[Abu].[CN(C(Sc1ccccn1)C(=O)[*:2])[*:1]].[meV].V.[meL].A.[dA].[meL].[meL].[meV]}$PEPTIDE1,PEPTIDE1,1:R1-11:R2$$$V2.0) | 0.2 | 1 (≈ 0.771 µM) | 25 | – | –
C/C=C/C[C@@H](C)[C@@H](O)[C@H]1C(=O)N[C@@H](CC)C(=O)N(C)C(OC(C)=O)C(=O)N(C)[C@@H](CC(C)C)C(=O)N[C@@H](C(C)C)C(=O)N(C)[C@@H](CC(C)C)C(=O)N[C@@H](C)C(=O)N[C@H](C)C(=O)N(C)[C@@H](CC(C)C)C(=O)N(C)[C@@H](CC(C)C)C(=O)N(C)[C@@H](C(C)C)C(=O)N1C (stereo partly drawn) [Example 13, 3-Acetoxy-cyclosporin] | – | 0.15 (≈ 0.119 µM) | – | – | 1
C/C=C/C[C@@H](C)[C@@H](O)[C@H]1C(=O)N[C@@H](CC)C(=O)N(C)C(Sc2ccncc2)C(=O)N(C)[C@@H](CC(C)C)C(=O)N[C@@H](C(C)C)C(=O)N(C)[C@@H](CC(C)C)C(=O)N[C@@H](C)C(=O)N[C@H](C)C(=O)N(C)[C@@H](CC(C)C)C(=O)N(C)[C@@H](CC(C)C)C(=O)N(C)[C@@H](C(C)C)C(=O)N1C (stereo partly drawn) [Example 2, 3-(Pyridyl-4-thio)-cyclosporin A] (HELM PEPTIDE1{[C/C=C/C[C@@H](C)[C@@H](O)[C@@H](C(=O)[*:2])N(C)[*:1]].[Abu].[CN(C(Sc1ccncc1)C(=O)[*:2])[*:1]].[meL].V.[meL].A.[dA].[meL].[meL].[meV]}$PEPTIDE1,PEPTIDE1,1:R1-11:R2$$$V2.0) | 0.2 | 1 (≈ 0.762 µM) | 25 | – | –
C/C=C/C[C@@H](C)[C@@H](O)[C@H]1C(=O)N[C@@H](CC)C(=O)N(C)C(OC)C(=O)N(C)[C@@H](CC(C)C)C(=O)N[C@@H](C(C)C)C(=O)N(C)[C@@H](CC(C)C)C(=O)N[C@@H](C)C(=O)N[C@H](C)C(=O)N(C)[C@@H](CC(C)C)C(=O)N(C)[C@@H](CC(C)C)C(=O)N(C)[C@@H](C(C)C)C(=O)N1C (stereo partly drawn) [Example 14, 3-Methoxycyclosporin] | – | – | 10 | – | 0.6
